These results are taken from paper PMC5145181, “Structural Mapping and Functional Characterization of Zebrafish Class B G-Protein Coupled Receptor (GPCR) with Dual Ligand Selectivity towards GLP-1 and Glucagon” (PLoS ONE, 2016).

Assay [1] concerns zfGPCR (dual zfGLP-1R/GCGR). Put plainly: Competitive binding, displacement of 125I-exendin(9–39) from recombinant zfGPCR expressed in COS-7 cells. On the set-up: species or system zebrafish (Danio rerio). Particulars: 125I-exendin(9–39) tracer, intact COS-7 cells, 16–18 h at 4°C, triplicate wells, NSB with 1 μM peptide, n = 4 zfGLP-1, n = 3 hGLP-1, zf glucagon, exendin-4, n = 5 exendin(9–39). 95% CI: zfGLP-1 225–371, hGLP-1 121–262, zf glucagon 78.5–144, h glucagon 33.6–134, exendin-4 0.84–1.17, exendin(9–39) 3.42–5.17. As for the experimental part:
(§1) Competitive binding experiments were performed with the recombinant zfGPCR expressed in COS-7 cells, as described previously. Transient transfections of pcDNA3 vector containing recombinant zfGPCR into COS-7 cells were performed as described below for the stimulation of intracellular cAMP. Cells were grown in 100-mm plates to confluence and 24 hr after transfection they were trypsinized and transferred to 24 well plates (Biocore, Becton Dickinson). 24–48 hr later each peptide (pM to μM) was added in triplicate wells followed by the addition of an aliquot (100,000 cpm/well) of either ^125I-hGLP-1(7–36)amide or ^125I-exendin(9–39) (each radioactive peptide tracer at […] receptor grade, NEN Life Science Products, Boston, MA). Peptides, radioiodinated ^125I-tracer and cells were incubated for 16–18 h at 4°C. After incubation cells were washed twice with ice-cold PBS, lysed with 1N NaOH and radioactivity measured in a γ-counter. A single dose-displacement curve for each peptide was obtained in a single 24-well plate.
Non-specific binding was determined in the presence of 1μM of each peptide.
(§2) IC50 values represent an average of n experiments as described above and were calculated by the Prism 4 software. Displacement curves from the competitive binding experiments were plotted by Origin 9 software (OriginLab). Error bars are shown for data points in the displacement curves obtained in two or more rounds of transfections.
(§3) Results from the functional experiments with recombinant zfGPCR transiently expressed in COS-7 cells were analyzed by the Prism 4 software using a four-parameter logistic sigmoidal curve fit model. Data points represent mean +/- SEM.
They are shown together with the 95% confidence intervals (CIs). The F-test was used to compare the IC50 value for zfGLP-1 with the IC50 values for the other tested peptides obtained in the competitive binding experiments shown when ^125I-hGLP-1(7–36)amide or ^125I-exendin (9–39) were used as tracers. Following conditions were used for the curve fitting: (i) in the normalization step y = 0%was set to be 0, y = 100% was set to be 100; (ii) constrained curve-fit parameters were set to be equal to 0.00 on the bottom, 100 on top; (iii) IC50 was not constrained; (iv) the selected option in the non-linear regression curve fit was intended on finding out whether the best-fit of a selected parameter (IC50) differs between two sets.
(In a radioligand displacement assay an active substance lowers the binding of a labelled ligand.)

Assay [2] relates to hGLP-1R mutant Ser155 to alanine. The following applies: Ser152 in hGCGR = Ser155 in hGLP-1R, mutated to alanine; cited from earlier work. An excerpt:
Among those are TM1-TM7 interaction between Ser152^1.50 and Ser 390^7.47 in which Ser152^1.50 in TM1 in hGCGR forms a hydrogen bond with the backbone of Ser390^7.47 in TM7.

Assay [3] concerns hGLP-1R mutant Asn318 to alanine. On the set-up: method as in PMID 23479653. Particulars: Asn318 mutated to alanine, cell surface expression unchanged; cited from earlier work.
The test system of assay [4] is zfGPCR (dual zfGLP-1R/GCGR). Put plainly: Intracellular cAMP in COS-7 cells expressing recombinant zfGPCR. The assay is classed as cell-based, zebrafish (Danio rerio). The following applies: for EC50: 20 min at 37°C, pH 7.4, 1 mM 1-methyl-3-isobutylxanthine, enzyme immunoassay, n = 9 zfGLP-1, n = 5 hGLP-1, zf glucagon, h glucagon, n = 3 exendin-4, n = 6 zfGLP-2. 95% CI: zfGLP-1 0.24–0.80, hGLP-1 0.65–1.63, zf glucagon 0.20–2.9, h glucagon 0.18–1.63, exendin-4 0.07–0.46, zfGLP-2 16.8–72.6. The method, then: The ability of different peptides to stimulate the increase in intracellular cAMP levels following their binding to the recombinant zfGPCR transiently expressed in COS-7 cells was measured using methods that we developed for non-mammalian G-protein coupled receptors. In brief, COS-7 cells were grown to confluence in 100-mm plates at 37°C and transfected with the pcDNA3 vector containing the recombinant zfGPCR using the TransFast transfection reagent (Promega, Madison, WI) at a […] of plasmid DNA (25 ug) to transfection reagent (75 μL). After 24 h cells were trypsynized and transferred to 24-well plates (Biocore, Becton-Dickinson, Franklin Lakes, NJ). Peptides (pM-μM) were added 24–48 h later. Cells were equilibrated prior to the addition of peptides with the assay buffer (DMEM, 0.5% BSA, 20mM HEPES, 1mM 1-methyl-3-isobutylxanthine, 0.1mM phenylmethylsulfonyl fluoride, pH 7.4) for 20 min at 37°C. Each peptide concentration was added in triplicate wells for 20 min at 37°C. cAMP dose-response curves for each tested peptide were obtained in a single 24-well plate. In all experiments, forskolin (100 nM) (Sigma-Aldrich, St.Louis, MO) was added as a positive control, also in triplicate wells, in the same 24-well plate as the tested peptide. After incubation, the media was removed and cells were lysed by the addition of cold ethanol (1 mL per well). Cell debris was pelleted by centrifugation (10,000 g) for 10-min, and supernatants were dried using a vacuum concentrator. Samples were resuspended in an assay buffer provided by the manufacturer and cAMP levels were quantified by the enzyme immunoassay kit (Cayman Chemicals, Ann Arbor, MI) according to the manufacturer’s instructions. The basal concentration of cAMP (in the absence of peptides) was taken as 1.00, and was in the range of 9–16 pmol/well. Results are presented as a fold-increase over basal.
Results were plotted by the Origin 9 software (OriginLab), and EC50 values were calculated by Prism 4 software as described below.
as §3
They are shown together with the 95% confidence intervals (CIs).
Comparison of EC50 values calculated from the zfGLP-1 cAMP dose-response curve with the EC50 calculated from the cAMP dose-response curves for each of the tested peptides were performed by the F-test from the Prism 4 software which compares the fitted mid-point (EC50) from the data sets of the two dose-response curves under comparison. Conditions of analysis were as follows: (i) in the normalization step y = 0% was set to be 1 (the basal cAMP concentration taken as 1); y = 100% was set to be the largest value in each data set; (ii) constrained curve-fit parameters were set to be equal to 0.00 on the bottom, 100 on top; (iii) EC50 was not constrained; (iv) the selected option in the non-linear regression curve fit was intended on finding out whether the best-fit of a selected parameter (EC50) differs between two sets.

Assay [5] relates to zfGPCR (dual zfGLP-1R/GCGR). Put plainly: Competitive binding, displacement of 125I-hGLP-1(7–36)amide from recombinant zfGPCR expressed in COS-7 cells. The following applies: 125I-hGLP-1(7–36)amide tracer, intact COS-7 cells, 16–18 h at 4°C, triplicate wells; NSB with 1 μM peptide; n = 3 hGLP-1, n = 2 zf glucagon, exendin-4, exendin(9–39), n = 1 zfGLP-1. 95% CI: zfGLP-1 1.2–3.6; hGLP-1 0.98–13; zf glucagon 1.4–4.0; exendin-4 0.24–0.92; exendin(9–39) 2.4–14. On the set-up: species or system zebrafish (Danio rerio). As for the experimental part:
as §1
Dose-response curves for zfGLP-1, zfGLP-2 and zebrafish PACAP-38 were obtained from one transfection. […] Lower rounds of transfections were performed in experiments that replicated our published results from the competitive binding experiments with the displacement of ^125I-hGLP-1(7–36)amide binding to zfGPCR [41] and thus represented positive controls for these studies.
as §2, §3
They are shown together with the 95% confidence intervals (CIs). […]

The test system of assay [6] is zfGPCR (dual zfGLP-1R/GCGR). Particulars: displacement of 125I-hGLP-1(7–36)amide; read-out: IC50 in competitive binding (earlier characterization of the zfGPCR); cited from earlier work. As for the experimental part:
Furthermore, exendin-4, an agonist of hGLP-1R, displaced in competitive binding experiments the binding of ^125I-hGLP-1(7–36) amide to the zebrafish receptor with an IC50 of 0.9 nM, which is within a similar concentration range as the one determined in competitive binding experiments with recombinant hGLP-1R [41] and rGLP-1R [23]. However, subsequent phylo ...

Assay [7] has as its system goldfish GCGR. Particulars: 95% CI: goldfish glucagon 1.3–7 nM; human glucagon 4.7–20 nM; cited from earlier work. An excerpt: In those studies the EC50 for goldfish glu ...
Assay [8] deals with recombinant glucagon receptor from the goldfish C. auratus (gfGCGR). The following applies: 95% CI: zebrafish glucagon 4.3–18 nM; goldfish glucagon 0.31–1 nM; cited from earlier work. An excerpt: To be consistent with our initial characterization of this receptor which we referred to as zfGLP-1R [41] and the characterization of the gfGCGR [18] we used only the sequences of zfGLP-1 and zf glucagon used in those studies (shown in Fig 1) and not the second zfGLP-1 and second zebrafish glucagon found in the zebrafish genome.

Assay [9] concerns fish hepatocytes. Particulars: GLP-1 from both human and fish; cited from earlier work. An excerpt: Our approach to understanding the selectivity of ligand recognition by the receptors for the gluco-regulatory peptides, GLP-1 and glucagon, has been to functionally characterize the ligand selectivity of GCGRs and GLP-1Rs from non-mammalian vertebrates and to compare them to the ligand selectivity of their mammalian counterparts. […] In the abs ...

For assay [10], the system named is GLP-1R. The following applies: cited from earlier work. An excerpt: Receptors for GLP-1 (GLP-1R) and glucagon (GCGR) belong to the class B GPCRs that mediate the physiological effects of the peptides within the glucagon-secretin peptide family. Their structures are characterized by large amino terminal extracellular domains which are about 140 amino acids long and an intracellular core consisting of a cytoplasmic domain and seven transmembrane helices (7TMs) connected through three extracellular and three intracellular loops.

For assay [11], the system named is hGCGR mutant Cys240 to Tyr240. Particulars: cited from earlier work. An excerpt:
In the 7TM crystal structure of hGCGR [30], the side chain of Tyr239^3.44 in TM3 interacts with the backbone atoms of Gly359^6.50 (3.5Å) and Leu358^6.49 (2.8Å) in TM6. Tyr239^3.44 is conserved only in hGLP-1R and is substituted with Asn23 ...

In assay [12] the target is recombinant glucagon receptor from the frog. Particulars: cited from earlier work. The method, then: (§4) Moreover, EC50’s for human and zebrafish glucagon obtained in our study were within similar concentration range as the EC50 ‘s determined in experiments with recombinant glucagon receptors from other vertebrate species. Thus, EC50‘s for human glucagon obtained from the cAMP assays performed with the recombinant glucagon receptor from the frog and the recombinant rat glucagon receptor were 0.8 nM [19] and 0.7nM [13], respectively, and are similar to the EC50 value of 1nM determined for the glucagon receptor in rat hepatocytes.

In assay [13] the target is glucagon receptor in rat hepatocytes. The following applies: cited from earlier work. As for the experimental part:
as §4

Assay [14] has as its target recombinant rat glucagon receptor. The following applies: cited from earlier work. As for the experimental part: as §4
The target of assay [15] is recombinant glucagon receptor from the frog R. tigrina rugulosa. The arrangement: method as in PMID 10471837. The following applies: cited from earlier work.
The test system of assay [16] is recombinant hGCGR. The arrangement: method as in PMID 7507321. Particulars: cited from earlier work.
Assay [17] deals with hGCGR mutant Glu362 to alanine. Particulars: reduced surface expression; cited from earlier work. An excerpt: Our inspection of the 7TM crystal structure of hGCGR [30] also identified a hydrophilic cluster formed by a salt bridge between Lys187^2.60 in TM2 and Glu362^6.53 in TM6, and hydrophilic portions of residues Tyr149^1.47 in TM1, Gln232^2.38, Asp238^2.43, […] in TM2; His361^6.52 in TM6, and Asp385^7.42, Ser389^7.46 Gln392^7.49 in TM7. This TM7-TM6-TM2-TM1 cluster offers a hydrophilic environment embedded deep inside the hydrophobic transmembrane.

Like-named read-outs stand apart in the source and are kept apart here.

Turning to “hGLP-1: Synthetic hGLP-1(7–36)amide (referred throughout as hGLP-1), purchased from Bachem”, the IC50 was 178 nM in [1], 3.6 nM in assay [5] and 0.9 nM in assay [6]. Further, the receptor affinity entry in assay [2] was “small reduction of receptor affinity”; in [3], “reduced the receptor’s affinity”. In [4], the half-maximal effective concentration (EC50) was found to be 1 nM.
Turning to exendin(9–39), the IC50 in assay [1] was found to be 4.21 nM; in [5] it was 5.8 nM. The receptor affinity result in [3] is reported as “reduced the receptor’s affinity”. Further, in [4] (cAMP assay), the “behaviour at the zfGPCR” value is “behaved as an antagonist”. In addition, the “stimulatory effect on cAMP levels” value in assay [4] (even at 1μM, n = 4) is “did not show any stimulatory effects”.
For the substance “goldfish glucagon: glucagon of goldfish, literature comparison (HSEGTFSNDYSKYLETRRAQDFVEWLMNS; Glucagon; UniProt P79695 50-78, looked up)”, the concentration for a half-maximal effect (EC50) in assay [7] is 3 nM. Besides, in [8], the IC50 was 0.56 nM.
For “GLP-1: refers to both GLP-1(7–37) and GLP-1(7–36)amide”, in assay [9], the gluconeogenesis entry is given as “stimulated gluconeogenesis”. Further, the “stimulation of intracellular cAMP, GLP-1 vs exendin-4” value in assay [10] is on record as “to a similar degree”.
“human glucagon: synthetic human glucagon purchased from Bachem”: the figures for the IC50 in assay [1], in assay [15] and in [16] were 67 nM, 12 nM and 5 nM, respectively. In addition, in assay [11], the “effect of mutation on binding to glucagon” value was “did not have an effect”. The EC50 in assay [12] is 0.8 nM; in [13], 1 nM; in [14], 0.7 nM; in assay [4], 0.54 nM; in assay [7], 9.7 nM. The “effect of mutation on binding of glucagon” value in [17] is listed as “decrease in the binding”.

For orientation: IC50 means the point on the concentration scale where inhibition reaches its midpoint. The term EC50 denotes the concentration needed to bring the measured effect to its halfway point.
